From patent US12545654B2 (STEMSYNERGY THERAPEUTICS, INC., priority 2020, dated 2026)

These molecules were tested on N-myc protein (assay: In-cell immunostaining assay for decrease of N-myc protein level in neuroblastoma cells). Conditions: human neuroblastoma cell lines (Kelly, IMR32, SK-N-BE(2)); treated overnight or up to 3 days; N-myc signal normalized over total protein; read-out: Activity (EC50 for decreasing N-myc protein level).
Format: cell-based
Procedure: Human neuroblastoma cell lines were obtained from either Millipore Sigma, St. Louis, MO (Kelly cells) or American Type Culture Collection, Manassas, VA (IMR32 and SK-N-BE(2) cells). Cells were cultured in RPMI1640 medium (Corning, New York, NY), supplemented with 10% fetal bovine serum, 100 unit/mL penicillin and 100 μg/mL streptomycin (Corning, New York, NY) at 37 degree Celsius with 5% CO2 in air atmosphere. Cells cultured in flat clear bottom, black 96-well plates (Corning, New York, NY) were treated with different concentrations of a compound of the invention, which was dissolved in the culture media (200 μL/well), overnight or up to 3 days. Cells were fixed with 4% paraformaldehyde (in Phosphate-Buffered Saline or PBS, 100 μL/well) for 30 minutes at room temperature. Cells were briefly washed three times with PBS afterwards, and then treated with PBS containing 0.1% Triton X-100 (100 μL/well) for 30 minutes at room temperature. For […], cells were further treated with PBS containing 0.01% IRDye 700DX NHS Ester (LI-COR Biosciences, Lincoln, NE. 100 μL/well) for 30 minutes at room temperature. Cells were again washed three times with PBS, and then treated with a Tris-buffered saline solution with 0.1% Tween 20 (TBST) and 5% non-fat milk (50 μL/well) for 1 hour at room temperature. Cells were then treated with TBST with 5% non-fat milk (50 μL/well) containing a mouse anti N-Myc antibody (Clone B8.4.B, 1:500 dilution, Santa Cruz Biotechnology, Santa Cruz, CA), or a combination of a rabbit anti-Histone H3 (phospho S10) antibody (Clone EPR17246, 1:10000 dilution, abcam, Cambridge, MA) and a mouse anti-Histone H3 antibody (Clone 1G1, 1:250 dilution, Santa Cruz Biotechnology, Santa Cruz, CA) overnight at 4 degree Celsius in the dark. Cells were washed three times with TBST, and then treated with TBST with 5% non-fat milk (50 μL/well) containing an IRDye 800CW donkey anti-mouse IgG antibody (1:1000 dilution, LI-COR Biosciences, Lincoln, NE) for N-myc staining, or IRDye® 800CW donkey anti-rabbit IgG and IRDye 680RD donkey anti-mouse IgG antibodies (1:1000 dilution, LI-COR Biosciences, Lincoln, NE) for Histone H3 (phospho S10) and Histone H3 staining, incubated for 1 hour at room temperature in the dark. Cells were then washed four times with TBST and the plate was scanned using an Odyssey 9120 Imaging System (LI-COR Biosciences, Lincoln, NE). Signals for N-myc, total protein, Histone H3 (phospho S10), and Histone H3 were obtained from the images using the ImageStudio software (Version 4.0.21, LI-COR Biosciences, Lincoln, NE). Normalized signals for N-myc (over total protein), and Histone H3 (phospho S10) (over Histone H3) were plotted in Prism 7 software (GraphPad Software, San Diego, CA). A four-parameter dose-response curve was fitted using a variable slope model and the EC50 was calculated in Prism 7 software (GraphPad Software, San Diego, CA).
Cc1nc(NC(=O)C2(C(=O)Nc3cccc(C(F)(F)F)c3)CC2)sc1C(=O)Nc1cc(C(F)(F)F)ccc1Cl [SSTA-0168, N-(5-((2-chloro-5-(trifluoromethyl)phenyl)carbamoyl)-4-methylthiazol-2-yl)-N-(3-(trifluoromethyl)phenyl)cyclopropane-1,1-dicarboxamide] was tested, and the EC50 was over 1 µM. With Cc1nc(NC(=O)C2(C(=O)Nc3ccc(Cl)c(F)c3)CC2)sc1C(=O)Nc1cc(C(F)(F)F)ccc1Cl [SSTA-0236, N-(4-chloro-3-fluorophenyl)-N-(5-((2-chloro-5-(trifluoromethyl)phenyl)carbamoyl)-4-methylthiazol-2-yl)cyclopropane-1,1-dicarboxamide] the EC50 was 0.25 to 1 µM. Cc1nc(NC(=O)C2(C(=O)Nc3cc(F)ccn3)CC2)sc1C(=O)Nc1cc(C(F)(F)F)ccc1Cl [SSTA-0252, N-(5-((2-chloro-5-(trifluoromethyl)phenyl)carbamoyl)-4-methylthiazol-2-yl)-N-(4-fluoropyridin-2-yl)cyclopropane-1,1-dicarboxamide] was tested, and the EC50 was over 1 µM. For Cc1nc(NC(=O)C2(C(=O)Nc3ccc(F)cc3)CC2)oc1C(=O)Nc1cccc(C(F)(F)F)c1 [SSTA-0190, N-(4-fluorophenyl)-N-(4-methyl-5-((3-(trifluoromethyl)phenyl)carbamoyl)oxazol-2-yl)cyclopropane-1,1-dicarboxamide], the EC50 was over 1 µM. Work on Cc1nc(-c2ccc(NC(=O)C3(C(=O)Nc4nc(C)c(C(=O)Nc5cc(C(F)(F)F)ccc5Cl)s4)CC3)cc2)no1 [SSTA-0229, N-(5-((2-chloro-5-(trifluoromethyl)phenyl)carbamoyl)-4-methylthiazol-2-yl)-N-(4-(5-methyl-1,2,4-oxadiazol-3-yl)phenyl)cyclopropane-1,1-dicarboxamide] yielded an EC50 of over 1 µM. Work on Cc1nc(NC(=O)C2(C(=O)Nc3cc(F)ccc3F)CC2)sc1C(=O)Nc1cc(C(F)(F)F)ccc1Cl [SSTA-0239, N-(5-((2-chloro-5-(trifluoromethyl)phenyl)carbamoyl)-4-methylthiazol-2-yl)-N-(2,5-difluorophenyl)cyclopropane-1,1-dicarboxamide] yielded an EC50 of over 1 µM. Work on O=C(Nc1ccc(Cl)c(Cl)c1)c1sc(NC(=O)C2(C(=O)Nc3ccc(F)cc3)CC2)nc1C1CC1 yielded an EC50 of over 1 µM. Molecule Cc1nc(NC(=O)C2(C(=O)Nc3ccc(F)c(F)c3)CC2)sc1C(=O)Nc1cc(C(F)(F)F)ccc1Cl [SSTA-0238, N-(5-((2-chloro-5-(trifluoromethyl)phenyl)carbamoyl)-4-methylthiazol-2-yl)-N-(3,4-difluorophenyl)cyclopropane-1,1-dicarboxamide] has an EC50 of 0.25 to 1 µM. Cc1nc(NC(=O)C2(C(=O)Nc3ccc(Cl)cc3)CC2)sc1C(=O)Nc1cc(C(F)(F)F)ccc1Cl [SSTA-0169, N-(5-((2-chloro-5-(trifluoromethyl)phenyl)carbamoyl)-4-methylthiazol-2-yl)-N-(4-chlorophenyl)cyclopropane-1,1-dicarboxamide] showed an EC50 of over 1 µM. Cc1nc(NC(=O)C2(C(=O)Nc3cc(F)cc(Cl)c3)CC2)sc1C(=O)Nc1cc(C(F)(F)F)ccc1Cl [SSTA-0237, N-(5-((2-chloro-5-(trifluoromethyl)phenyl)carbamoyl)-4-methylthiazol-2-yl)-N-(3-chloro-5-fluorophenyl)cyclopropane-1,1-dicarboxamide] gave an EC50 of 0.25 to 1 µM. Cc1nc(NC(=O)C2(C(=O)Nc3ccccc3Cl)CC2)sc1C(=O)Nc1cc(C(F)(F)F)ccc1Cl [SSTA-0170, N-(5-((2-chloro-5-(trifluoromethyl)phenyl)carbamoyl)-4-methylthiazol-2-yl)-N-(2-chlorophenyl)cyclopropane-1,1-dicarboxamide] showed an EC50 of over 1 µM. COc1cc(F)cc(NC(=O)C2(C(=O)Nc3nc(C)c(C(=O)Nc4cc(C(F)(F)F)ccc4Cl)s3)CC2)c1 [SSTA-0241, N-(5-((2-chloro-5-(trifluoromethyl)phenyl)carbamoyl)-4-methylthiazol-2-yl)-N-(3-fluoro-5-methoxyphenyl)cyclopropane-1,1-dicarboxamide] gave an EC50 of 0.25 to 1 µM.
